Values quoted from earlier work, collected in patent publication US12234263B2, “Influenza vaccines” (InvVax, Inc., priority 2016, dated 2025).

System: CD8 T-cell
Conditions: BALB/C; worldwideweb.fludb.org

## TYQRTRALV [SEQ ID NO: 37]
  experimentally validated CD8 T-cell epitope: experimentally validated BALB/C influenza A virus CD8 T-cell epitope
